Data: patent US12275731B2, “Azaindole inhibitors of wild-type and mutant forms of LRRK2” (DANA-FARBER CANCER INSTITUTE, INC., priority 2018, dated 2025)

How the values were obtained:
Assay in all cases: KinomeScan profiling
Type in all cases: binding
CSNK1A1L = molecular target: T1, CSNK1A1L (Homo sapiens, UniProt Q8N752); settings: read-out: % control
T1 sequence (Q8N752 1-337): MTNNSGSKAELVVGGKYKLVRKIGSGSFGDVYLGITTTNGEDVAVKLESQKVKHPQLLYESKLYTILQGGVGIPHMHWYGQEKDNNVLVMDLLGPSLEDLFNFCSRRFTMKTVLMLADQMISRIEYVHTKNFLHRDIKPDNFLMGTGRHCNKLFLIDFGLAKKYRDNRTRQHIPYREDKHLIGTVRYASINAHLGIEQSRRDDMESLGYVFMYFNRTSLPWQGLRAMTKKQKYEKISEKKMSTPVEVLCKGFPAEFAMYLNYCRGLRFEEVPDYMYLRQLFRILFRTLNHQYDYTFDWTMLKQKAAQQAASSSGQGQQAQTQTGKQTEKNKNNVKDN
How it was run: (§1)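 Normalised RLU (% control; DMSO 100%, positive control 0%) was measured for compounds dosed at 1 μM over 468 kinases, active cut-off <35%.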

NEK5 = molecular target: T2, NEK5 (Homo sapiens, UniProt Q6P3R8); settings: NEK5, 1 μM; read-out: % control
T2 sequence (Q6P3R8 1-708): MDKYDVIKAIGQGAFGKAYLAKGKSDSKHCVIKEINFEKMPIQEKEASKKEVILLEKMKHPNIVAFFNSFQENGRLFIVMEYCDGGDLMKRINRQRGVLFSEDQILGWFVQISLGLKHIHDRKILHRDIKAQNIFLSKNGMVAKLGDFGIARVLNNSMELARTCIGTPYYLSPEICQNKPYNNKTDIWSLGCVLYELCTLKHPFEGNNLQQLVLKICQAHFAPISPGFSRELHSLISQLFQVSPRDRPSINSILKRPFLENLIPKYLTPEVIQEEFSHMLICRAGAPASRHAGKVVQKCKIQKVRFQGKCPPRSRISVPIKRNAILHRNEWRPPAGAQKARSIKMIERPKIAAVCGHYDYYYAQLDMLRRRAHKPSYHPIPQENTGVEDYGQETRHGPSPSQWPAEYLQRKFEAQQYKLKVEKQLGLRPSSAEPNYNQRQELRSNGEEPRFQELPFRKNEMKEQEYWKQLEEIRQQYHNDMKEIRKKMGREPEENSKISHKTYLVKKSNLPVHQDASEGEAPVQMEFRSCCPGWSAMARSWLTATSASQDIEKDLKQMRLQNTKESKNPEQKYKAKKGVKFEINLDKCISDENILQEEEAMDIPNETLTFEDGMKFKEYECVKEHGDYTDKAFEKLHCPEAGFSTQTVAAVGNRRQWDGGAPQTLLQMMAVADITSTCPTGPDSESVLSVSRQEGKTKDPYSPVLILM
How it was run: as §1

DCAMKL2 = molecular target: T3, DCAMKL2 (Homo sapiens, UniProt Q8N568); settings: DCAMKL2, 1 μM; read-out: % control
T3 sequence (Q8N568 1-766): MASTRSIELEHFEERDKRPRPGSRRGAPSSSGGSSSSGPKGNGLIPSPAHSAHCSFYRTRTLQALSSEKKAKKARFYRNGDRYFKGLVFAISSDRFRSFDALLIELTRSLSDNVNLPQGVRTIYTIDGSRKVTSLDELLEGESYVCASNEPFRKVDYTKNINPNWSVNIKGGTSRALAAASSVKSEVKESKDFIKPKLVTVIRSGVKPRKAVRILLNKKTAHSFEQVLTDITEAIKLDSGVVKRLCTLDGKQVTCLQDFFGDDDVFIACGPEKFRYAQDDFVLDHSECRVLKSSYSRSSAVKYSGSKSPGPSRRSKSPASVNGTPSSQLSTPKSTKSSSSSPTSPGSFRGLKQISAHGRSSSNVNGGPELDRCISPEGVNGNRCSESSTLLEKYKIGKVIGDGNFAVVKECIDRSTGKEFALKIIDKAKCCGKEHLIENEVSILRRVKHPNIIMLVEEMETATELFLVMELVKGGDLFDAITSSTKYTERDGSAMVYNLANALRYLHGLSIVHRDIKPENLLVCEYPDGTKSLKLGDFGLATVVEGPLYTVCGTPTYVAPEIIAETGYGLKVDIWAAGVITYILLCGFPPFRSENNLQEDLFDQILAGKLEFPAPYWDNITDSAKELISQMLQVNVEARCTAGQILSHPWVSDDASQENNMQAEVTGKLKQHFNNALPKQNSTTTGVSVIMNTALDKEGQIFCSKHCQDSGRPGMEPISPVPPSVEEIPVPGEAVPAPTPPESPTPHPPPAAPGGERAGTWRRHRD
How it was run: as §1

FLT4 = FLT4 (Homo sapiens, UniProt P35916); settings: FLT4, 1 μM; read-out: % control
How it was run: as §1

LRRK2 = LRRK2 (Homo sapiens, UniProt Q5S007); settings: LRRK2, 1 μM; read-out: % control
How it was run: as §1

CSF1R = CSF1R (Homo sapiens, UniProt P07333); settings: read-out: % control
How it was run: as §1

Sequence of CSF1R (P07333 20-972): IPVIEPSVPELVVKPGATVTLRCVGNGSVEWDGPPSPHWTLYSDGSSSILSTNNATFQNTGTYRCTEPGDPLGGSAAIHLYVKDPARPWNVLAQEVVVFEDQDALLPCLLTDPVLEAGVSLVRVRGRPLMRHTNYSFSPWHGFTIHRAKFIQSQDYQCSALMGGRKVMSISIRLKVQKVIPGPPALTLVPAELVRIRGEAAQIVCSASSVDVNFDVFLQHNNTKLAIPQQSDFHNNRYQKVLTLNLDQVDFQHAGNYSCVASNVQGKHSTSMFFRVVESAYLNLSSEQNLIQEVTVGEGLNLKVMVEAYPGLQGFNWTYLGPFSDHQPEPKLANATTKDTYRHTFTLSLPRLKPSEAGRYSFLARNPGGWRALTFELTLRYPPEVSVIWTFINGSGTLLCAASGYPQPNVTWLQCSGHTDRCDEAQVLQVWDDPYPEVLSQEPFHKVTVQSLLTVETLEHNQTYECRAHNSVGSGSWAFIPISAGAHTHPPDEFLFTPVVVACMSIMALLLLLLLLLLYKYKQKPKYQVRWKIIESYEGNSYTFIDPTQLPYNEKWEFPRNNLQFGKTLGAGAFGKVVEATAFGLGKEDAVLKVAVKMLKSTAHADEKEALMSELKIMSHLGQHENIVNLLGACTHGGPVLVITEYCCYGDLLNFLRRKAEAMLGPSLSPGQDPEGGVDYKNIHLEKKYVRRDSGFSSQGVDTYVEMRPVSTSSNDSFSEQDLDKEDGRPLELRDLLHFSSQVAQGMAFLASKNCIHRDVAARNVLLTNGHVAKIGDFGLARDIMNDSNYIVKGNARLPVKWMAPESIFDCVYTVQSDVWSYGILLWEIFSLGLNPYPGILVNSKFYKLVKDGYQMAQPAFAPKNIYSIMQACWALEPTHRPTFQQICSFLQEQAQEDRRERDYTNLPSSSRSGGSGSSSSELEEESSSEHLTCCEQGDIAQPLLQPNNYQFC
Sequence of LRRK2 (Q5S007 whole entry): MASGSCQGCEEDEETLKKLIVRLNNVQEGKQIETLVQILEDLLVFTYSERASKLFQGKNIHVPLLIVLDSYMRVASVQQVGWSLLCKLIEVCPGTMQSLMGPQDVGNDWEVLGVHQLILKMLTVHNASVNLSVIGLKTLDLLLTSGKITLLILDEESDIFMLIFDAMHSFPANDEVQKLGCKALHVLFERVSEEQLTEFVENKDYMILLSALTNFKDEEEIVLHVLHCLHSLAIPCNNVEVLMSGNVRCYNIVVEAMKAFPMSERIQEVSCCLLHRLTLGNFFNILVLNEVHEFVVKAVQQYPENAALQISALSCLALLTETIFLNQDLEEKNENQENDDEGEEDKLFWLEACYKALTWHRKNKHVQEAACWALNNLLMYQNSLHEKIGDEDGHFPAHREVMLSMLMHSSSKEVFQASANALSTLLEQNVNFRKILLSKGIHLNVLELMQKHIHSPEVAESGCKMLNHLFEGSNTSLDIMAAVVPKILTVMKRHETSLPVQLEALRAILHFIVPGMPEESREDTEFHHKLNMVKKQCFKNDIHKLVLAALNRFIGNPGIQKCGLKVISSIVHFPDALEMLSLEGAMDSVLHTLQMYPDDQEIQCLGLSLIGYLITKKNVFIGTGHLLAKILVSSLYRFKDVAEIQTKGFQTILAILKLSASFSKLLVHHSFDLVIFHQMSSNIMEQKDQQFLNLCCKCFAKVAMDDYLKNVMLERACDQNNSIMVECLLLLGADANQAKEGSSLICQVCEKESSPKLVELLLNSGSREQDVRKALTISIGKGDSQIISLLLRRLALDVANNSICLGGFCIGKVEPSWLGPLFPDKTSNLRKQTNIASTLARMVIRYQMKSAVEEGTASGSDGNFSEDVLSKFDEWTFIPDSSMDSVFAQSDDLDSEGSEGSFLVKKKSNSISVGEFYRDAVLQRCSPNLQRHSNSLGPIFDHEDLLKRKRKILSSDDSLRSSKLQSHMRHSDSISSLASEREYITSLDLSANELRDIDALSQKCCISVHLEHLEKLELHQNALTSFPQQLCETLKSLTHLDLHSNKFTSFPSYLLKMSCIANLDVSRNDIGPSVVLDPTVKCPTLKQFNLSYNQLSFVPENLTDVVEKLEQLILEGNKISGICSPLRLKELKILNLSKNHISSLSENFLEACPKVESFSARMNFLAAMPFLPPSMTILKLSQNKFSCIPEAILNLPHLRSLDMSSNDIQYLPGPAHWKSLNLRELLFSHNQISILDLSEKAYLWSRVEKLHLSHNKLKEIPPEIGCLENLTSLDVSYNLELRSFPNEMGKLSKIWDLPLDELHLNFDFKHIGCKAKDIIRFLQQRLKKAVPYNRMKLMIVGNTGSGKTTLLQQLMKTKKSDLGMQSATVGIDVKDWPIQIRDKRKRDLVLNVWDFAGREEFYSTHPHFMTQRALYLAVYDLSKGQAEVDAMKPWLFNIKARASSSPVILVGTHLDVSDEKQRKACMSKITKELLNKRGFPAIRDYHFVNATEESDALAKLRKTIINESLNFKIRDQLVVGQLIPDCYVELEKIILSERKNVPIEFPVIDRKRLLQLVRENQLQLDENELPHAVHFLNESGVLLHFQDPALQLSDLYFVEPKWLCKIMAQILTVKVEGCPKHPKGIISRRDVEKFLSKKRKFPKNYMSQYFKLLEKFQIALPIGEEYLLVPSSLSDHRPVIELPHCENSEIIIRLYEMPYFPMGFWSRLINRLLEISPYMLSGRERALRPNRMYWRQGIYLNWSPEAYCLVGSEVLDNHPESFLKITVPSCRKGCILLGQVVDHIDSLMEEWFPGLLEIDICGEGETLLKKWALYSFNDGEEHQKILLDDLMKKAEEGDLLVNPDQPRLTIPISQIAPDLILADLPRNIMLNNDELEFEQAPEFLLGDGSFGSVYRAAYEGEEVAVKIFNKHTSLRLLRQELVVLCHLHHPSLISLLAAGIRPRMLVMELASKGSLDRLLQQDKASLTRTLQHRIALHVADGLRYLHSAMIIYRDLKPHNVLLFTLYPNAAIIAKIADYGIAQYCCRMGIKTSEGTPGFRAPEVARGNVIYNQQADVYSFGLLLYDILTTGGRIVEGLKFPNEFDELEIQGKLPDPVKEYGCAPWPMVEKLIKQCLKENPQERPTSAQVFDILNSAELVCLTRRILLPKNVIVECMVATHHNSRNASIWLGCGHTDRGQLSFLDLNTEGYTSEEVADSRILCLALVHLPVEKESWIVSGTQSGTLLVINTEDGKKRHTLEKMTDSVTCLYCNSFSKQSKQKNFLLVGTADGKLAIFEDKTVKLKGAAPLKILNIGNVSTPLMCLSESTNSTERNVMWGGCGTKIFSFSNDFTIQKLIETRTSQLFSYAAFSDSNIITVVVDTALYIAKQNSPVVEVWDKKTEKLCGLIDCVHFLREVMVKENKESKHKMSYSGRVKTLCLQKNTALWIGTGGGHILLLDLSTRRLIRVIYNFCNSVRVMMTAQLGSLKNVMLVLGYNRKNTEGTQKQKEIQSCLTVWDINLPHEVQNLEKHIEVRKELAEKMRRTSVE
Sequence of FLT4 (P35916 25-1363): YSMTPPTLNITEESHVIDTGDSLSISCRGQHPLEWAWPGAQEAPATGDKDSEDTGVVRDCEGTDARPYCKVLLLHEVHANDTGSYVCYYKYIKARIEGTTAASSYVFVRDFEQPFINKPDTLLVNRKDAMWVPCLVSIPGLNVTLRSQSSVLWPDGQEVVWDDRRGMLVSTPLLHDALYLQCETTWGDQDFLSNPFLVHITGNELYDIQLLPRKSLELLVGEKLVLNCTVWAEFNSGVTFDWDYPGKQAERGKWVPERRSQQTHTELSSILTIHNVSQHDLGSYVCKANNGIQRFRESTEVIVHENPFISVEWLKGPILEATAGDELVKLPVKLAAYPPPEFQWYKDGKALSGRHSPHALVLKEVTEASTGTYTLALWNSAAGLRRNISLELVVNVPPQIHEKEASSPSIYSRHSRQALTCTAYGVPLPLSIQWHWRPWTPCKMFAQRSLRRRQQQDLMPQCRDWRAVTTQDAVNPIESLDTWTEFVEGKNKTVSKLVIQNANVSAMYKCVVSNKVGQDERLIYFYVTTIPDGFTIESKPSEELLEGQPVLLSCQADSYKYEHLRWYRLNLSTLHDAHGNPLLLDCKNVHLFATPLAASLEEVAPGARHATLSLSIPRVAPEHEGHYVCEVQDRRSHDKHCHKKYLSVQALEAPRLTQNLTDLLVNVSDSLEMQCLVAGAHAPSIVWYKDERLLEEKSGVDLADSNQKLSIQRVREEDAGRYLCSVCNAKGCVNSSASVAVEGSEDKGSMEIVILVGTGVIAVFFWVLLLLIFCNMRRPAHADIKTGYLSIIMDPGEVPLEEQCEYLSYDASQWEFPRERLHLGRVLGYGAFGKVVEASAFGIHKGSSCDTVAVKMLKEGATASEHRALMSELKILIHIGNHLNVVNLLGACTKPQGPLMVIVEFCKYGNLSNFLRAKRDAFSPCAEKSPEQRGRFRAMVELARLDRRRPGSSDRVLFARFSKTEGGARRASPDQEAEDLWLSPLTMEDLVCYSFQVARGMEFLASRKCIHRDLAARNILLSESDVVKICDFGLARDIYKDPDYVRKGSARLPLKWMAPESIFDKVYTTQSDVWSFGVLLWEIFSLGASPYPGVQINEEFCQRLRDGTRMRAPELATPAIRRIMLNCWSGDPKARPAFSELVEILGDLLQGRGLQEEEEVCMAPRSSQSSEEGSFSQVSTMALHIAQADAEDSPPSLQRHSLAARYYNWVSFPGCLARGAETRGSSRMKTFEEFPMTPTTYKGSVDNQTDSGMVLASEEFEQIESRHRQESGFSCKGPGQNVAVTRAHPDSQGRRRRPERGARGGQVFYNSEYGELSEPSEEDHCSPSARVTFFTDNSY

Compound `CNc1c(-c2cnn([C@H]3CCN(C(C)=O)C[C@@H]3F)c2)cnc2[nH]cc(Cl)c12` [Compound 77, 1-((3S,4S)-4-(4-(3-chloro-4-(methylamino)-1H-pyrrolo[2,3-b]pyridin-5-yl)-1H-pyrazol-1-yl)-3-fluoropiperidin-1-yl)ethan-1-one] has a remaining binding at 1 µM (CSNK1A1L) of 79%, a remaining binding at 1 µM (NEK5) of 79% and a remaining binding at 1 µM (DCAMKL2) of 89%. For the same compound, the remaining binding at 1 µM (FLT4) was 47%, the remaining binding at 1 µM (LRRK2) was 15% and the remaining binding at 1 µM (CSF1R) was 74%.
With `CNc1c(-c2ccc(C(=O)N3CCC(N4CCOCC4)CC3)cc2)cnc2[nH]cc(Cl)c12` [Compound 96, (4-(3-chloro-4-(methylamino)-1H-pyrrolo[2,3-b]pyridin-5-yl)phenyl)(4-morpholinopiperidin-1-yl)methanone] the remaining binding at 1 µM (CSNK1A1L) was 48%, the remaining binding at 1 µM (NEK5) was 99% and the remaining binding at 1 µM (DCAMKL2) was 78%. It also gave a remaining binding at 1 µM (FLT4) of 66%, a remaining binding at 1 µM (LRRK2) of 2.6% and a remaining binding at 1 µM (CSF1R) of 73%.
Compound `O=C(c1ccc(-c2cnc3[nH]cc(Cl)c3c2NC2CCCC2)cc1)N1CCC(N2CCOCC2)CC1` [Compound 101, (4-(3-chloro-4-(cyclopentylamino)-1H-pyrrolo[2,3-b]pyridin-5-yl)phenyl)(4-morpholinopiperidin-1-yl)methanone] has a remaining binding at 1 µM (CSNK1A1L) of 100%, a remaining binding at 1 µM (NEK5) of 99% and a remaining binding at 1 µM (DCAMKL2) of 99%. For the same compound, the remaining binding at 1 µM (FLT4) was 100%, the remaining binding at 1 µM (LRRK2) was 33% and the remaining binding at 1 µM (CSF1R) was 28%.
